# From article PMC8617031, “Development of a BCL-xL and BCL-2 dual degrader with improved anti-leukemic activity,” (Nature Communications, 2021)
# Several values for one entry are separate records, joined by “and”; a condition that tells them apart may be missing. Equal values may be shown once. Read-outs that look alike come from different tables or passages of the source.
# Key:
# Type in all cases: cell-based, human
# [1] = system: BCL-2/PROTAC/VCB ternary complex (HiBit-BCL-2, HaloTag-VHL); assay: NanoBRET intracellular ternary complex formation in 293T cells, BCL-2; conditions: for NanoBRET signal (610/450 ratio, background-subtracted), Ave, Bcl-2: Ave of Read1 and Read2, per replicate well; for NanoBRET signal (610/450 ratio, background-subtracted), Read1, Bcl-2 / NanoBRET signal (610/450 ratio, background-subtracted), Read2, Bcl-2: individual replicate wells
# Text: (§1) Plasmids HaloTag-VHL (Cat. No. CS1679C155) and CMV HiBit (Cat. No. CS1956B03) were purchased from Promega. HiBit-BCL-xL and HiBit-BCL-2 were constructed previously. The two mutants (HiBit-BCL-xL-K157-only and HiBit-BCL-xL-K-ko) were constructed through Gibson assembly method. The primer pair (5′-[…]-3′ and 5′-[…]c[…]-3′) and the template Flag-BCL-xL-K157-only or Flag-BCL-xL-K-ko (pDL2129)[2] were used to clone the BCL-xL-K157-only-containing and BCL-xL-K-ko-containing fragments, respectively. The primer pair (5′-[…]g[…]-3′ and 5′-[…]-3′) and pBit3.1-N (Cat. No. N2361, Promega) were used to clone the vector-containing fragment. The PCR fragments were assembled using NEBuilder® HiFi DNA Assembly Master Mix (Cat. No. E2621, NEB, Ipswich, MA, USA). DNA sequences in all these plasmids were authenticated by automatic sequencing. […] After 24 h, 2 × 10^4 transfected cells were seeded into white 96-well tissue culture plates in Gibco™ Opti-MEM™ I Reduced Serum Medium, No Phenol Red (Cat. No. 11-058-021, Fisher) containing 4% FBS with or without HaloTag NanoBRET 618 Ligand (Cat. No. PRN1662, Promega) and incubated overnight at 37 °C, 5% CO2. The following day, serial diluted compounds were added into the medium and plates were incubated at 37 °C, 5% CO2, for 6 h. After treatment, NanoBRET Nano-Glo Substrate (cat. no. N1662, Promega) was added into the medium, and the contents were mixed by shaking the plate for 30 s before measuring donor and acceptor signals on Biotek plate reader. Dual-filtered luminescence was collected with a 450/50 nm bandpass filter (donor, NanoBiT-BCL-XL protein or NanoBiT-BCL-2 protein) and a 610-nm longpass filter (acceptor, HaloTag NanoBRET ligand) using an integration time of 0.5 s. mBRET ratios were calculated following the NanoBRET™ Nano-Glo® Detection System (Cat. No. N1662, Promega).
# [2] = system: BCL-xL/PROTAC/VCB ternary complex (HiBit-BCL-xL, HaloTag-VHL); assay: NanoBRET intracellular ternary complex formation in 293T cells, BCL-xL; conditions: for NanoBRET signal (610/450 ratio, background-subtracted), Ave, Bcl-xl: Ave of Read1 and Read2, per replicate well; for NanoBRET signal (610/450 ratio, background-subtracted), Read1, Bcl-xl / NanoBRET signal (610/450 ratio, background-subtracted), Read2, Bcl-xl: individual replicate wells
# Text: as §1
# [3] = system: Kasumi-1 cells; assay: Viability (MTS) of Kasumi-1 AML cells; conditions: for IC50: Homo sapiens, Kasumi 1, 72 h
compound,measurement,setting,value
Cc1ncsc1-c1ccc(C(C)NC(=O)C2CC(O)CN2C(=O)C(NC(=O)CCCCCCCCCC(=O)N2CCN(CC3(C)CCC(c4ccc(Cl)cc4)=C(CN4CCN(c5ccc(C(=O)NS(=O)(=O)c6ccc(NC(CCN7CCOCC7)CSc7ccccc7)c(S(=O)(=O)C(F)(F)F)c6)cc5)CC4)C3)CC2)C(C)(C)C)cc1 (mixture of isomers) [319-C11],"NanoBRET signal (610/450 ratio, background-subtracted), Ave, Bcl-2",[1]; 0.333 uM,4.383 and 4.153 and 4.737
same,"NanoBRET signal (610/450 ratio, background-subtracted), Read1, Bcl-2",[1]; 0.333 uM,4.892 and 4.708 and 4.979
same,"NanoBRET signal (610/450 ratio, background-subtracted), Read2, Bcl-2",[1]; 0.333 uM,3.874 and 3.599 and 4.495
same,"NanoBRET signal (610/450 ratio, background-subtracted), Ave, Bcl-2",[1]; 1 uM,4.831 and 5.865 and 5.494
same,"NanoBRET signal (610/450 ratio, background-subtracted), Read1, Bcl-2",[1]; 1 uM,4.901 and 5.9757 and 5.389
same,"NanoBRET signal (610/450 ratio, background-subtracted), Read2, Bcl-2",[1]; 1 uM,4.762 and 5.754 and 5.599
same,"NanoBRET signal (610/450 ratio, background-subtracted), Ave, Bcl-2",[1]; 3 uM,4.755 and 5.241 and 5.369
same,"NanoBRET signal (610/450 ratio, background-subtracted), Read1, Bcl-2",[1]; 3 uM,5 and 5.455 and 5.5909
same,"NanoBRET signal (610/450 ratio, background-subtracted), Read2, Bcl-2",[1]; 3 uM,4.5106 and 5.027 and 5.1462
same,"NanoBRET signal (610/450 ratio, background-subtracted), Ave, Bcl-xl",[2]; 0.333 uM,5.756 and 6.621 and 6.037
same,"NanoBRET signal (610/450 ratio, background-subtracted), Read1, Bcl-xl",[2]; 0.333 uM,6.07 and 6.538 and 6.1116
same,"NanoBRET signal (610/450 ratio, background-subtracted), Read2, Bcl-xl",[2]; 0.333 uM,5.442 and 6.704 and 5.963
same,"NanoBRET signal (610/450 ratio, background-subtracted), Ave, Bcl-xl",[2]; 1 uM,5.696 and 5.538 and 6.106
same,"NanoBRET signal (610/450 ratio, background-subtracted), Read1, Bcl-xl",[2]; 1 uM,5.861 and 5.46 and 6.469
same,"NanoBRET signal (610/450 ratio, background-subtracted), Read2, Bcl-xl",[2]; 1 uM,5.532 and 5.616 and 5.743
same,"NanoBRET signal (610/450 ratio, background-subtracted), Ave, Bcl-xl",[2]; 3 uM,5.386 and 5.324 and 6.583
same,"NanoBRET signal (610/450 ratio, background-subtracted), Read1, Bcl-xl",[2]; 3 uM,5.512 and 5.444 and 6.844
same,"NanoBRET signal (610/450 ratio, background-subtracted), Read2, Bcl-xl",[2]; 3 uM,5.259 and 5.204 and 6.3216
"CC1(C)CCC(CN2CCN(c3ccc(C(=O)NS(=O)(=O)c4ccc(NCC5CCOCC5)c([N+](=O)[O-])c4)c(Oc4cnc5[nH]ccc5c4)c3)CC2)=C(c2ccc(Cl)cc2)C1 [ABT199, venetoclax]",Luminescence (raw plate reading),"[3]; 3.90625 nM (plate column 2), Fig. 7a",505600 and 468580 and 525678 and 543318
same,Luminescence (raw plate reading),"[3]; 7.8125 nM (plate column 3), Fig. 7a",504424 and 455660 and 487360 and 542979
same,Luminescence (raw plate reading),"[3]; 15.625 nM (plate column 4), Fig. 7a",489014 and 455068 and 501527 and 480804
same,Luminescence (raw plate reading),"[3]; 31.25 nM (plate column 5), Fig. 7a",466073 and 441818 and 471956 and 491899
same,Luminescence (raw plate reading),"[3]; 62.5 nM (plate column 6), Fig. 7a",440585 and 409812 and 377802 and 367500
same,Luminescence (raw plate reading),"[3]; 125 nM (plate column 7), Fig. 7a",397154 and 357971 and 355935 and 386744
same,Luminescence (raw plate reading),"[3]; 250 nM (plate column 8), Fig. 7a",359551 and 316363 and 300748 and 321366
same,Luminescence (raw plate reading),"[3]; 500 nM (plate column 9), Fig. 7a",315682 and 289875 and 281016 and 292587
same,Luminescence (raw plate reading),"[3]; 1000 nM (plate column 10), Fig. 7a",293868 and 256148 and 279970 and 273769
same,Luminescence (raw plate reading),"[3]; 2000 nM = 2U (plate column 11), Fig. 7a",258049 and 207791 and 210071 and 198590
same,Luminescence (raw plate reading),"[3]; 4000 nM = 4U (plate column 12), Fig. 7a",180705 and 155931 and 141587 and 133830
same,"Luminescence normalised to mean of the 0 concentration wells (= 100), viability","[3]; 3.90625 (nM), Fig. 7a",73.8707 and 68.4619 and 76.8042 and 79.3815
same,"Luminescence normalised to mean of the 0 concentration wells (= 100), viability","[3]; 7.8125 (nM), Fig. 7a",73.6989 and 66.5743 and 71.2058 and 79.332
same,"Luminescence normalised to mean of the 0 concentration wells (= 100), viability","[3]; 15.625 (nM), Fig. 7a",71.4474 and 66.4878 and 73.2757 and 70.2479
same,"Luminescence normalised to mean of the 0 concentration wells (= 100), viability","[3]; 31.25 (nM), Fig. 7a",68.0956 and 64.5519 and 68.9552 and 71.869
same,"Luminescence normalised to mean of the 0 concentration wells (= 100), viability","[3]; 62.5 (nM), Fig. 7a",64.3717 and 59.8756 and 55.1988 and 53.6936
same,"Luminescence normalised to mean of the 0 concentration wells (= 100), viability","[3]; 125 (nM), Fig. 7a",58.0262 and 52.3014 and 52.0039 and 56.5053
same,"Luminescence normalised to mean of the 0 concentration wells (= 100), viability","[3]; 250 (nM), Fig. 7a",52.5322 and 46.2223 and 43.9408 and 46.9532
same,"Luminescence normalised to mean of the 0 concentration wells (= 100), viability","[3]; 500 (nM), Fig. 7a",46.1228 and 42.3522 and 41.0579 and 42.7485
same,"Luminescence normalised to mean of the 0 concentration wells (= 100), viability","[3]; 1000 (nM), Fig. 7a",42.9356 and 37.4245 and 40.905 and 39.9991
same,"Luminescence normalised to mean of the 0 concentration wells (= 100), viability","[3]; 2000 (nM, 2U), Fig. 7a",37.7023 and 30.3593 and 30.6924 and 29.015
same,"Luminescence normalised to mean of the 0 concentration wells (= 100), viability","[3]; 4000 (nM, 4U), Fig. 7a",26.4019 and 22.7823 and 20.6866 and 19.5532
same,IC50,"[3]; Fig. 7a, read-out: IC50, viability of Kasumi-1 AML cells",867 nM
same,IC50,"[3]; Fig. 7c, read-out: IC50, viability of Kasumi-1 cells",1130 nM
